Assay results published in the NIST ThermoML archive (doi:10.1021/je0498208).
± gives the expanded uncertainty stated by the source.

Test: xn = mol fraction of the nth substance listed
Conditions: Liquid; for viscosity: 101 kPa; for mass density: 101.3 kPa

## O=CN1CCOCC1 [N-formylmorpholine] + O
298.15 K, x1 = 0.0499
  viscosity: 1.45 ± 0.04 mPa·s
  mass density: 1038.7 ± 0.18 kg/m3
298.15 K, x1 = 0.1007
  viscosity: 2.22 ± 0.06 mPa·s
  mass density: 1067.03 ± 0.22 kg/m3
298.15 K, x1 = 0.1976
  viscosity: 3.82 ± 0.11 mPa·s
  mass density: 1099.55 ± 0.31 kg/m3
298.15 K, x1 = 0.3006
  viscosity: 5.05 ± 0.14 mPa·s
  mass density: 1117.88 ± 0.42 kg/m3
298.15 K, x1 = 0.3917
  viscosity: 5.95 ± 0.17 mPa·s
  mass density: 1127.34 ± 0.51 kg/m3
298.15 K, x1 = 0.5001
  viscosity: 6.53 ± 0.18 mPa·s
  mass density: 1134.34 ± 0.63 kg/m3
298.15 K, x1 = 0.5834
  viscosity: 6.81 ± 0.19 mPa·s
  mass density: 1137.94 ± 0.72 kg/m3
298.15 K, x1 = 0.6969
  viscosity: 7.25 ± 0.2 mPa·s
  mass density: 1141.28 ± 0.85 kg/m3
298.15 K, x1 = 0.7942
  viscosity: 7.27 ± 0.2 mPa·s
  mass density: 1143.43 ± 0.95 kg/m3
298.15 K, x1 = 0.9047
  viscosity: 7.53 ± 0.21 mPa·s
  mass density: 1145.19 ± 1.1 kg/m3
298.15 K, x1 = 0.9493
  viscosity: 7.7 ± 0.22 mPa·s
  mass density: 1145.97 ± 1.1 kg/m3
298.15 K, x1 = 1
  viscosity: 7.87 ± 0.22 mPa·s
  mass density: 1146.62 ± 1.2 kg/m3
303.15 K, x1 = 0.0499
  viscosity: 1.29 ± 0.04 mPa·s
  mass density: 1036.24 ± 0.18 kg/m3
303.15 K, x1 = 0.1007
  viscosity: 1.85 ± 0.05 mPa·s
  mass density: 1063.95 ± 0.21 kg/m3
303.15 K, x1 = 0.1976
  viscosity: 3.33 ± 0.1 mPa·s
  mass density: 1095.78 ± 0.31 kg/m3
303.15 K, x1 = 0.3006
  viscosity: 4.31 ± 0.12 mPa·s
  mass density: 1113.82 ± 0.41 kg/m3
303.15 K, x1 = 0.3917
  viscosity: 5.04 ± 0.14 mPa·s
  mass density: 1123.11 ± 0.51 kg/m3
303.15 K, x1 = 0.5001
  viscosity: 5.54 ± 0.16 mPa·s
  mass density: 1130.03 ± 0.63 kg/m3
303.15 K, x1 = 0.5834
  viscosity: 5.79 ± 0.16 mPa·s
  mass density: 1133.6 ± 0.72 kg/m3
303.15 K, x1 = 0.6969
  viscosity: 6.02 ± 0.17 mPa·s
  mass density: 1136.91 ± 0.84 kg/m3
303.15 K, x1 = 0.7942
  viscosity: 6.21 ± 0.18 mPa·s
  mass density: 1139.05 ± 0.95 kg/m3
303.15 K, x1 = 0.9047
  viscosity: 6.46 ± 0.19 mPa·s
  mass density: 1140.81 ± 1.1 kg/m3
303.15 K, x1 = 0.9493
  viscosity: 6.62 ± 0.19 mPa·s
  mass density: 1141.6 ± 1.1 kg/m3
303.15 K, x1 = 1
  viscosity: 6.75 ± 0.2 mPa·s
  mass density: 1142.26 ± 1.2 kg/m3
313.15 K, x1 = 0.0499
  viscosity: 1.038 ± 0.031 mPa·s
  mass density: 1030.93 ± 0.17 kg/m3
313.15 K, x1 = 0.1007
  viscosity: 1.52 ± 0.05 mPa·s
  mass density: 1057.44 ± 0.21 kg/m3
313.15 K, x1 = 0.1976
  viscosity: 2.44 ± 0.07 mPa·s
  mass density: 1088.06 ± 0.3 kg/m3
313.15 K, x1 = 0.3006
  viscosity: 3.23 ± 0.09 mPa·s
  mass density: 1105.52 ± 0.41 kg/m3
313.15 K, x1 = 0.3917
  viscosity: 3.77 ± 0.11 mPa·s
  mass density: 1114.62 ± 0.5 kg/m3
313.15 K, x1 = 0.5001
  viscosity: 4.19 ± 0.12 mPa·s
  mass density: 1121.35 ± 0.62 kg/m3
313.15 K, x1 = 0.5834
  viscosity: 4.33 ± 0.13 mPa·s
  mass density: 1124.87 ± 0.71 kg/m3
313.15 K, x1 = 0.6969
  viscosity: 4.55 ± 0.13 mPa·s
  mass density: 1128.16 ± 0.83 kg/m3
313.15 K, x1 = 0.7942
  viscosity: 4.7 ± 0.14 mPa·s
  mass density: 1130.3 ± 0.94 kg/m3
313.15 K, x1 = 0.9047
  viscosity: 4.9 ± 0.15 mPa·s
  mass density: 1132.07 ± 1.1 kg/m3
313.15 K, x1 = 0.9493
  viscosity: 5.03 ± 0.15 mPa·s
  mass density: 1132.87 ± 1.1 kg/m3
313.15 K, x1 = 1
  viscosity: 5.13 ± 0.15 mPa·s
  mass density: 1133.53 ± 1.2 kg/m3
323.15 K, x1 = 0.0499
  viscosity: 0.854 ± 0.026 mPa·s
  mass density: 1025.15 ± 0.17 kg/m3
323.15 K, x1 = 0.1007
  viscosity: 1.23 ± 0.04 mPa·s
  mass density: 1050.64 ± 0.21 kg/m3
323.15 K, x1 = 0.1976
  viscosity: 1.95 ± 0.06 mPa·s
  mass density: 1080.16 ± 0.3 kg/m3
323.15 K, x1 = 0.3006
  viscosity: 2.5 ± 0.07 mPa·s
  mass density: 1097.1 ± 0.4 kg/m3
323.15 K, x1 = 0.3917
  viscosity: 2.88 ± 0.08 mPa·s
  mass density: 1105.98 ± 0.5 kg/m3
323.15 K, x1 = 0.5001
  viscosity: 3.21 ± 0.09 mPa·s
  mass density: 1114.62 ± 0.62 kg/m3
323.15 K, x1 = 0.5834
  viscosity: 3.35 ± 0.1 mPa·s
  mass density: 1116.08 ± 0.7 kg/m3
323.15 K, x1 = 0.6969
  viscosity: 3.53 ± 0.1 mPa·s
  mass density: 1119.37 ± 0.83 kg/m3
323.15 K, x1 = 0.7942
  viscosity: 3.67 ± 0.11 mPa·s
  mass density: 1121.52 ± 0.93 kg/m3
323.15 K, x1 = 0.9047
  viscosity: 3.86 ± 0.12 mPa·s
  mass density: 1123.33 ± 1.1 kg/m3
323.15 K, x1 = 0.9493
  viscosity: 4.01 ± 0.12 mPa·s
  mass density: 1124.14 ± 1.1 kg/m3
323.15 K, x1 = 1
  viscosity: 4.03 ± 0.12 mPa·s
  mass density: 1124.82 ± 1.2 kg/m3
333.15 K, x1 = 0.0499
  viscosity: 0.715 ± 0.022 mPa·s
  mass density: 1018.01 ± 0.17 kg/m3
333.15 K, x1 = 0.1007
  viscosity: 1.018 ± 0.031 mPa·s
  mass density: 1043.55 ± 0.21 kg/m3
333.15 K, x1 = 0.1976
  viscosity: 1.57 ± 0.05 mPa·s
  mass density: 1072.05 ± 0.3 kg/m3
333.15 K, x1 = 0.3006
  viscosity: 2.1 ± 0.06 mPa·s
  mass density: 1088.55 ± 0.4 kg/m3
333.15 K, x1 = 0.3917
  viscosity: 2.41 ± 0.07 mPa·s
  mass density: 1097.24 ± 0.49 kg/m3
333.15 K, x1 = 0.5001
  viscosity: 2.65 ± 0.08 mPa·s
  mass density: 1103.8 ± 0.61 kg/m3
333.15 K, x1 = 0.5834
  viscosity: 2.73 ± 0.08 mPa·s
  mass density: 1107.26 ± 0.7 kg/m3
333.15 K, x1 = 0.6969
  viscosity: 2.84 ± 0.08 mPa·s
  mass density: 1110.55 ± 0.82 kg/m3
333.15 K, x1 = 0.7942
  viscosity: 2.96 ± 0.09 mPa·s
  mass density: 1112.72 ± 0.93 kg/m3
333.15 K, x1 = 0.9047
  viscosity: 3.2 ± 0.1 mPa·s
  mass density: 1114.57 ± 1.1 kg/m3
333.15 K, x1 = 0.9493
  viscosity: 3.21 ± 0.1 mPa·s
  mass density: 1115.4 ± 1.1 kg/m3
333.15 K, x1 = 1
  viscosity: 3.25 ± 0.1 mPa·s
  mass density: 1116.11 ± 1.1 kg/m3
343.15 K, x1 = 0.0499
  viscosity: 0.67 ± 0.021 mPa·s
  mass density: 1011.38 ± 0.17 kg/m3
343.15 K, x1 = 0.1007
  viscosity: 0.857 ± 0.026 mPa·s
  mass density: 1036.08 ± 0.2 kg/m3
343.15 K, x1 = 0.1976
  viscosity: 1.27 ± 0.04 mPa·s
  mass density: 1063.72 ± 0.29 kg/m3
343.15 K, x1 = 0.3006
  viscosity: 1.8 ± 0.05 mPa·s
  mass density: 1079.83 ± 0.4 kg/m3
343.15 K, x1 = 0.3917
  viscosity: 2.05 ± 0.06 mPa·s
  mass density: 1088.36 ± 0.49 kg/m3
343.15 K, x1 = 0.5001
  viscosity: 2.26 ± 0.07 mPa·s
  mass density: 1094.88 ± 0.6 kg/m3
343.15 K, x1 = 0.5834
  viscosity: 2.33 ± 0.07 mPa·s
  mass density: 1098.33 ± 0.69 kg/m3
343.15 K, x1 = 0.6969
  viscosity: 2.37 ± 0.07 mPa·s
  mass density: 1101.67 ± 0.81 kg/m3
343.15 K, x1 = 0.7942
  viscosity: 2.52 ± 0.08 mPa·s
  mass density: 1103.88 ± 0.92 kg/m3
343.15 K, x1 = 0.9047
  viscosity: 2.67 ± 0.08 mPa·s
  mass density: 1105.79 ± 1 kg/m3
343.15 K, x1 = 0.9493
  viscosity: 2.67 ± 0.08 mPa·s
  mass density: 1106.66 ± 1.1 kg/m3
343.15 K, x1 = 1
  viscosity: 2.68 ± 0.08 mPa·s
  mass density: 1107.39 ± 1.1 kg/m3
